Assay results taken from PMC4052943 (BioMed Research International, 2014).
Read-outs that look alike come from different tables or passages of the source.

Key:
[1] = test system: Salmonella typhimurium TA98; assay: Ames antimutagenicity assay (preincubation); settings: for inhibition at 500 µM: Salmonella enterica, TYPHIMURIUM;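 as to all read-outs here: test compound and mutagen preincubated 30 min at 37°C before adding bacteria, then His+ revertant colonies counted after 48 h plating, inhibition relative to mutagen-only versus negative-control revertants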
[2] = test system: Salmonella typhimurium TA102; assay: Ames antimutagenicity assay (preincubation); settings: for inhibition at 50 µM / inhibition at 100 µM / inhibition at 250 µM / inhibition at 500 µM: Salmonella enterica, TYPHIMURIUM;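 as to all read-outs here: compound and mutagen preincubated 30 min at 37 °C before adding bacteria, His+ revertant colonies counted after 48 h at 37 °C, inhibition relative to mutagen-alone minus negative-control revertants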
Protocol: In the preincubation experiment, test compounds and mutagen, each having a volume of 0.1 mL of varying concentrations, were preincubated at 37°C for 30 min and then 0.1 mL of 1 × 10^7 CFU/mL density of the bacterial culture was added, followed by the addition of 2.5 mL of top agar at 45°C (containing 0.5% NaCl and 0.6% agar) supplemented with 0.5 mM histidine-biotin. […] The combined solutions were vortexed and poured onto minimal glucose plates (40% glucose solution and Vogel Bonner medium). The plates were incubated at 37°C for 48 h and the numbers of histidine-independent revertants colonies were scored.
Survival of the bacteria was routinely monitored for each experiment. Parallel controls were run with compounds alone at all concentrations to test the possible toxicity. The concentrations of the test samples for investigating the antimutagenicity were 50, 100, 200, and 500 μM. […] All the test samples and mutagens were dissolved in DMSO (final conc., 0.01%). […] Plates were set up in triplicate for each concentration and the entire experiment was repeated three times. Inhibition of mutagenicity was expressed as percentage decrease of reverse mutation and calculated as (1) Percent inhibition=[(a−b)/(a−c)]×100, where a = number of histidine revertants induced by mutagen, b = number of histidine revertants induced by mutagen in the presence of test compound, and c = number of revertants induced in negative control.

## O=C1O[C@H]2[C@@H]3OC(=O)c4cc(O)c(O)c(O)c4-c4c(O)c(O)c5oc(=O)c6c(c(O)c(O)c7oc(=O)c4c5c76)-c4c(cc(O)c(O)c4O)C(=O)OC[C@H]3OC(O)[C@@H]2OC(=O)c2cc(O)c(O)c(O)c2-c2c1cc(O)c(O)c2O (mixture of isomers) [Punicalagin]
[1]; read-out: % inhibition of mutagenicity, TA 98, 500 μM + MMS, no S9
  inhibition at 500 µM: 71%
[1]; read-out: % inhibition of mutagenicity, TA 98, 500 μM + NaN3, no S9
  inhibition at 500 µM: 65.3%
[1]; TA 98, 50 μM + 2AF, S9
  Number of His+ revertants colonies/plate: 210.3 ± 10.7 colonies/plate
[1]; TA 98, 50 μM + BP, S9
  Number of His+ revertants colonies/plate: 138.0 ± 8.7 colonies/plate
[1]; TA 98, 50 μM + MMS, no S9
  Number of His+ revertants colonies/plate: 50.3 ± 1.8 colonies/plate
[1]; TA 98, 100 μM + 2AF, S9
  Number of His+ revertants colonies/plate: 172.3 ± 12.0 colonies/plate
[1]; TA 98, 100 μM + BP, S9
  Number of His+ revertants colonies/plate: 105.3 ± 9.0 colonies/plate
[1]; TA 98, 100 μM + MMS, no S9
  Number of His+ revertants colonies/plate: 45.3 ± 2.0 colonies/plate
[1]; TA 98, 100 μM + NaN3, no S9
  Number of His+ revertants colonies/plate: 47.3 ± 1.8 colonies/plate
[1]; TA 98, 250 μM + BP, S9
  Number of His+ revertants colonies/plate: 65.0 ± 6.8 colonies/plate
[1]; TA 98, 250 μM + MMS, no S9
  Number of His+ revertants colonies/plate: 39.7 ± 2.0 colonies/plate
[1]; TA 98, 250 μM + NaN3, no S9
  Number of His+ revertants colonies/plate: 40.7 ± 2.6 colonies/plate
[1]; TA 98, 500 μM + 2AF, S9
  Number of His+ revertants colonies/plate: 65.3 ± 4.1 colonies/plate
[1]; TA 98, 500 μM + BP, S9
  Number of His+ revertants colonies/plate: 52.7 ± 4.3 colonies/plate
[1]; TA 98, 500 μM + MMS, no S9
  Number of His+ revertants colonies/plate: 35.0 ± 2.1 colonies/plate
[1]; TA 98, 500 μM + MMS, no S9, 500 µM
  % inhibition of mutagenicity: 70.9%
[1]; TA 98, 500 μM + NaN3, no S9
  Number of His+ revertants colonies/plate: 36.0 ± 1.7 colonies/plate
[2]; read-out: % inhibition of mutagenicity, TA 102, 50 μM + 2AF, S9
  inhibition at 50 µM: 38.7%
[2]; read-out: % inhibition of mutagenicity, TA 102, 50 μM + BP, S9
  inhibition at 50 µM: 15.8%
[2]; read-out: % inhibition of mutagenicity, TA 102, 50 μM + MMS, no S9
  inhibition at 50 µM: 17.5%
[2]; read-out: % inhibition of mutagenicity, TA 102, 50 μM + NaN3, no S9
  inhibition at 50 µM: 18%
[2]; read-out: % inhibition of mutagenicity, TA 102, 100 μM + 2AF, S9
  inhibition at 100 µM: 54.8%
[2]; read-out: % inhibition of mutagenicity, TA 102, 100 μM + BP, S9
  inhibition at 100 µM: 28%
[2]; read-out: % inhibition of mutagenicity, TA 102, 100 μM + MMS, no S9
  inhibition at 100 µM: 30.8%
[2]; read-out: % inhibition of mutagenicity, TA 102, 100 μM + NaN3, no S9
  inhibition at 100 µM: 17.6%
[2]; read-out: % inhibition of mutagenicity, TA 102, 250 μM + BP, S9
  inhibition at 250 µM: 58.6%
[2]; read-out: % inhibition of mutagenicity, TA 102, 250 μM + MMS, no S9
  inhibition at 250 µM: 50.8%
[2]; read-out: % inhibition of mutagenicity, TA 102, 250 μM + NaN3, no S9
  inhibition at 250 µM: 42.2%
[2]; read-out: % inhibition of mutagenicity, TA 102, 500 μM + 2AF, S9
  inhibition at 500 µM: 81.6%
[2]; read-out: % inhibition of mutagenicity, TA 102, 500 μM + BP, S9
  inhibition at 500 µM: 76.2%
[2]; read-out: % inhibition of mutagenicity, TA 102, 500 μM + MMS, no S9
  inhibition at 500 µM: 74.1%
[2]; read-out: % inhibition of mutagenicity, TA 102, 500 μM + NaN3, no S9
  inhibition at 500 µM: 59.8%
[2]; TA 102, 50 μM + 2AF, S9
  Number of His+ revertants colonies/plate: 1028.0 ± 21.8 colonies/plate
[2]; TA 102, 50 μM + BP, S9
  Number of His+ revertants colonies/plate: 635.0 ± 23.0 colonies/plate
[2]; TA 102, 50 μM + MMS, no S9
  Number of His+ revertants colonies/plate: 1072.0 ± 10.7 colonies/plate
[2]; TA 102, 50 μM + NaN3, no S9
  Number of His+ revertants colonies/plate: 346.3 ± 23.5 colonies/plate
[2]; TA 102, 100 μM + 2AF, S9
  Number of His+ revertants colonies/plate: 854.0 ± 31.6 colonies/plate
[2]; TA 102, 100 μM + BP, S9
  Number of His+ revertants colonies/plate: 595.0 ± 28.8 colonies/plate
[2]; TA 102, 100 μM + MMS, no S9
  Number of His+ revertants colonies/plate: 942.0 ± 16.2 colonies/plate
[2]; TA 102, 100 μM + NaN3, no S9
  Number of His+ revertants colonies/plate: 341.0 ± 19.1 colonies/plate
[2]; TA 102, 250 μM + BP, S9
  Number of His+ revertants colonies/plate: 496.0 ± 17.4 colonies/plate
[2]; TA 102, 250 μM + MMS, no S9
  Number of His+ revertants colonies/plate: 738.0 ± 14.8 colonies/plate
[2]; TA 102, 250 μM + NaN3, no S9
  Number of His+ revertants colonies/plate: 310.7 ± 16.0 colonies/plate
[2]; TA 102, 500 μM + 2AF, S9
  Number of His+ revertants colonies/plate: 563.0 ± 29.4 colonies/plate
[2]; TA 102, 500 μM + BP, S9
  Number of His+ revertants colonies/plate: 438.0 ± 19.5 colonies/plate
[2]; TA 102, 500 μM + MMS, no S9
  Number of His+ revertants colonies/plate: 509.0 ± 19.7 colonies/plate
